Experimental data from US20250177582A1, “HIGH-AFFINITY LIGANDS OF FIBROBLAST ACTIVATION PROTEIN FOR TARGETED DELIVERY APPLICATIONS” (PHILOCHEM AG, priority 2022, published 2025).
pIC50: −log10 of the molar value. “Also recorded” adds a separate entry of the source. Like-named read-outs stand apart in the source and are kept apart here.

Assays:
murine FAP = murine FAP (Mus musculus (Mouse), UniProt P97321); assay: Inhibition assay of FAP (fluorogenic substrate Z-Gly-Pro-AMC); assay type: biochemical; details: substrate Z-Gly-Pro-AMC 20 μM; 66 pM murine FAP; room temperature
Experimental: (§1) Inhibition assay of FAP. The compounds were precisely weighed (range between […]) on a micro-scale (HuberLab, Sartorius QUINTIX35-1S) and dissolved in DMSO to prepare stock solutions at 1 mM. Stock solutions were further diluted with FAP activation buffer (50 mM Tris, 100 mM NaCl, 1 mM EDTA, pH=7.4) to a final DMSO concentration of 10% v/v. 10 μL of each inhibitor were serially diluted in a 384 well plate (grenier-bio one, PS, F-bottom, Black, non-binding) with 10 μL of 10% DMSO FAP buffer (1:1 dilution). FAP (human and murine) was diluted to the desired concentration with FAP activation buffer and added to the serial dilution of inhibitor (10 μL for each well). Each protein-inhibitor solution was incubated for 30 minutes at room temperature. Each measurement was performed with an enzyme concentration (FAP) lower than the expected IC50. A 60 μM solution of substrate (Z-Gly-Pro-AMC) in FAP activation buffer (<1% DMSO) was added to the plate (10 μL for each well). The reaction was incubated from 1 minute to 48 hours (see FIG. 2) at room temperature (22° C.-25° C.). The emission was read at 465 nm (excitation wavelength 360 nm) for 40 μs by Tecan Spark (s.n. 1808004082). The following controls were added to each row: positive control (no inhibitor control, 10 μL of 10% DMSO FAP buffer+10 μL of FAP solution+10 μL of substrate solution), negative control (no protein control, 10 μL of 10% DMSO FAP buffer+10 μL of FAP activation buffer+10 μL of substrate solution).
(§2) Normalization of values: The “% of FAP activity” can be calculated with the following formula:
(§3) FIG. 3: Inhibition assay performed with compounds 1, 2, 3, 4, 5, 6, 8 against a) 66 pM human FAP and b) 66 pM murine FAP. The concentration of substrate (Z-Gly-Pro-AMC) was kept constant=20 μM. The assay was incubated for 48 hours at 22.6° C. Error bars display SEM.
(§4) FIG. 4: a) Inhibition assay performed with compounds 8, 9 and 10 against 66 pM human FAP. The assay was incubated for 17 hours at 25° C. b) Inhibition assay performed with compound 9 against 66 pM murine FAP. The assay was incubated for 17 hours at 25° C. In both assays the concentration of substrate (Z-Gly-Pro-AMC) was kept constant=20 μM. Error bars display SEM.

human FAP = human FAP (Homo sapiens (Human), UniProt Q12884); assay: as above; assay type: biochemical; details: for FAP binding relative to the parent compound (in words): effect of arginine-based tail / of removing furan as group W; for FAP inhibition potency (in words): SAR comparison
Experimental: as §1, §2
The concentration of substrate (Z-Gly-Pro-AMC) was kept constant=20 μM. Dashed lines corresponds to sets of data with unstable fitting. […] Error bars display SEM.
as §3, §4
FIG. 19. A: Chemical structures and corresponding IC50(hFAP) values of compounds according to the present invention. B: Chemical structures and corresponding IC50 values of compounds where the propargyl moiety at position AA^2 was replaced by different groups (Me, iPr, Bn) using both R and S stereoisomers. The sites of modification have been highlighted with arrows. Each measurement was performed with a FAP concentration lower than the expected IC50. Depending on FAP concentration, the fluorescence was measured between 10 minutes and 48 h (at room temperature) after the addition of the fluorogenic substrate (Z-Gly-Pro-AMC). IC50 values and standard errors were calculated using “[Inhibitor] vs. response—Variable slope (four parameters)” fitting (Graphpad Prism). […] By introducing the quinoline-based moiety, a single-digit nanomolar inhibitor was obtained. […] The replacement of propargylglycine with S-phenylalanine improved potency of the lead compound of additional ˜2-folds (compound 14).

[1] = tested on: FAP positive SKRC-52.hFAP; assay: Flow cytometry (FACS) binding; assay type: cell-based; details: 100 nM; 1 h on ice
Experimental: (§5) Cells were detached from culture plates using Accutase cell detachment solution, counted and suspended to a final concentration of 1.25×10≢cell/100 μL in a solution of FACS buffer (1% bovine serum albumin, 2 mM EDTA, in 500 mL PBS pH 7.4). Aliquots of 2.5×10≡cells (200 μL) were spun down and resuspended in solutions of compound 36 and compound 29 (100 μL; 100 nM) in FACS buffer and incubated on ice in the dark for 1 h. Cells were washed once with 200 μl FACS (1% v/v)/PBS (pH=7.4), spun down, resuspended in a solution of FACS buffer and analyzed via a BD LSRFortessa™ Cell Analyzer (Biosciences). FlowJo Version 8.7 (Treestar) was used for the data analysis and visualization.

FAP negative SKRC-52.wt = assay: Flow cytometry (FACS) binding; assay type: cell-based; details: 100 nM; 1 h on ice
Experimental: as §5

SK-RC-52.hFAP cells = assay: Confocal microscopy on living cells; assay type: cell-based; details: 150 nM; imaged 1 h after incubation
Experimental: SK—RC-52.hFAP and SK—RC-52.wt cells were seeded into g-Slide 8 Well high Glass Bottom at a density of 5×10^4 cells per well in 300 μL of RPMI medium supplemented with 10% fetal calf serum (FCS), AA, and Hepes (10 mM) and allowed to grow overnight under standard culture conditions. Hoechst 33342 nuclear dye was used to stain nuclear structures. The culture medium was replaced with fresh medium containing either compound 36 or 29 (150 nM). Randomly selected colonies were imaged 1 h after incubation on the confocal microscope Zeiss LSM 880 airyscan (Zeiss). Fiji was used for the data processing and visualization.

[2] = substrate Z-Gly-Pro-AMC 20 μM, FAP concentration lower than expected IC50 (66 pM in FIG. 3, 4), room temperature, read-out: IC50 vs human FAP

Sequence of human FAP (Q12884 whole entry): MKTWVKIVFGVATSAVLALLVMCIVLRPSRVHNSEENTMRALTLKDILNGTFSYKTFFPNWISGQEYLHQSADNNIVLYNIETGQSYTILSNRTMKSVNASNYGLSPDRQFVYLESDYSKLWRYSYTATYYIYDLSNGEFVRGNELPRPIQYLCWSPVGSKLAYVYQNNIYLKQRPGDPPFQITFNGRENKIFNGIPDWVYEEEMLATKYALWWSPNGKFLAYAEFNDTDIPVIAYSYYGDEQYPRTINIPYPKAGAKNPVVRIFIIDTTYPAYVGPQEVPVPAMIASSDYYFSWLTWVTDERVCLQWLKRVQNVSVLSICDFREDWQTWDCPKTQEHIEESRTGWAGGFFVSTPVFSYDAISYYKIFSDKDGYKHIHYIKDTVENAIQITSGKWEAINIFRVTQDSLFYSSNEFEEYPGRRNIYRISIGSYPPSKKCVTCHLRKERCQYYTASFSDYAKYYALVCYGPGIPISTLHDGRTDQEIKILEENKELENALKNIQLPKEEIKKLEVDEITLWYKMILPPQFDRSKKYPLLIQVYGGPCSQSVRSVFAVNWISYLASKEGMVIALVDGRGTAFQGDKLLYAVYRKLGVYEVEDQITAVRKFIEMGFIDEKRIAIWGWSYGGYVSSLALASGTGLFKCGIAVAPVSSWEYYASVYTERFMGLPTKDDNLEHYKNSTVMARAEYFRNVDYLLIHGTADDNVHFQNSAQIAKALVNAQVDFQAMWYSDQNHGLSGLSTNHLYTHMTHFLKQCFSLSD
Sequence of murine FAP (P97321 whole entry): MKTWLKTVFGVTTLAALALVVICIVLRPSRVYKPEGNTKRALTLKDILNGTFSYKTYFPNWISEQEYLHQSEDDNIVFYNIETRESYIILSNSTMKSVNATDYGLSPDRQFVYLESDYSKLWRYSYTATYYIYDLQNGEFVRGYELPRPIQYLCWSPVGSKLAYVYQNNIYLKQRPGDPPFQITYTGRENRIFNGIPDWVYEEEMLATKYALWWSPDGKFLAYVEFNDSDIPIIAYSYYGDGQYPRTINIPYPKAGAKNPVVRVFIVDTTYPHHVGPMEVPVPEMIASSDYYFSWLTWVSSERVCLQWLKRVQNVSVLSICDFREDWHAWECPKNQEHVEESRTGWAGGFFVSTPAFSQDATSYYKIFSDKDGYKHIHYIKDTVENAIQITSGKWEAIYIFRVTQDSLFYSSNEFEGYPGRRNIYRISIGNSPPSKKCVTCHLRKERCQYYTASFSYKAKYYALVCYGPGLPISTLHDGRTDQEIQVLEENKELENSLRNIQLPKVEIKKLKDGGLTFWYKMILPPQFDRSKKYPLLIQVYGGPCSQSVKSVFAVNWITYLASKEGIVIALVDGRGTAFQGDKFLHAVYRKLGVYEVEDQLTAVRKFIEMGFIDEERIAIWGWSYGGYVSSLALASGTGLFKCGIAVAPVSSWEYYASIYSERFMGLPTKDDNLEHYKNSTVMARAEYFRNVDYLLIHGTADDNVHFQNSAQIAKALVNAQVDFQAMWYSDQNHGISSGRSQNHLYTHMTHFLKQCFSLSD

pIC50 (murine FAP) | SMILES | pIC50 (human FAP; [2]) | other results
3.70 | N#C[C@@H]1CC(F)(F)CN1C(=O)CCC(=O)O [Compound 1] | 3.60 | 
6.81 | CN(C)C(=N)NCCC[C@H](NC(=O)c1coc(CNC(=O)CCC(=O)N2CC(F)(F)C[C@H]2C#N)c1)C(=O)N[C@@H](CCCCN)C(=O)O [Compound 4] | 6.75 | FAP binding relative to the parent compound (in words) (human FAP): significant improvement
5.41 | C#CC[C@H](NC(=O)c1coc(CNC(=O)CCC(=O)N2CC(F)(F)C[C@H]2C#N)c1)C(=O)N[C@@H](CCCCN)C(=O)O [Compound 5] |  | 
4.64 | C#CC[C@H](NC(=O)CCC(=O)N1CC(F)(F)C[C@H]1C#N)C(=O)N[C@@H](CCCCN)C(=O)O [Compound 6] | 4.76 | FAP binding relative to the parent compound (in words) (human FAP): worsening
7.79 | N#C[C@@H]1CC(F)(F)CN1C(=O)CNC(=O)c1ccnc2c(NC(=O)CCC(=O)O)cccc12 [Compound 8, (S)-4-((4-((2-(2-cyano-4,4-difluoropyrrolidin-1-yl)-2-oxoethyl)carbamoyl)quinolin-8-yl)amino)-4-oxobutanoic acid, reference compound] | 7.96 | pIC50 (human FAP; 22.6° C., [hFAP] 2.5 nM to 39 pM, substrate 20 μM, read-out: IC50 values from fitted curves, inhibition assay performed overtime): 7.68 to 8.22
 | C#CC[C@H](NC(=O)CCC(=O)Nc1cccc2c(C(=O)NCC(=O)N3CC(F)(F)C[C@H]3C#N)ccnc12)C(=O)N[C@@H](CCCCN)C(=O)O [Compound 10] | 8.36 | 
 | CN(C)C(=N)NCCC[C@H](NC(=O)CCC(=O)Nc1cccc2c(C(=O)NCC(=O)N3CC(F)(F)C[C@H]3C#N)ccnc12)C(=O)N[C@@H](Cc1ccccc1)C(=O)N[C@@H](CCCCN)C(=O)O [Compound 11] | 9.81 | FAP inhibition potency (in words) (human FAP): picomolar range
 | N#C[C@@H]1CC(F)(F)CN1C(=O)CNC(=O)c1ccnc2c(NC(=O)CCC(=O)N[C@@H](CCCNC(=N)N)C(=O)N[C@@H](Cc3ccccc3)C(=O)N[C@@H](CCCCN)C(=O)O)cccc12 [Compound 14] | 9.45 | improvement of potency over the lead compound on replacing propargylglycine with S-phenylalanine (human FAP; L-arginine building block (R=H)): ~2 folds
 | N#C[C@@H]1CC(F)(F)CN1C(=O)CNC(=O)c1ccnc2c(NC(=O)CCC(=O)N[C@@H](CCCNC(=N)N)C(=O)N[C@H](Cc3ccccc3)C(=O)N[C@@H](CCCCN)C(=O)O)cccc12 [Compound 15] | 6.22 | 
 | CC(C)[C@H](NC(=O)[C@H](CCCNC(=N)N)NC(=O)CCC(=O)Nc1cccc2c(C(=O)NCC(=O)N3CC(F)(F)C[C@H]3C#N)ccnc12)C(=O)N[C@@H](CCCCN)C(=O)O [Compound 16] | 8.78 | 
 | CC(C)[C@@H](NC(=O)[C@H](CCCNC(=N)N)NC(=O)CCC(=O)Nc1cccc2c(C(=O)NCC(=O)N3CC(F)(F)C[C@H]3C#N)ccnc12)C(=O)N[C@@H](CCCCN)C(=O)O [Compound 17] | 9.16 | 
 | C[C@H](NC(=O)[C@H](CCCNC(=N)N)NC(=O)CCC(=O)Nc1cccc2c(C(=O)NCC(=O)N3CC(F)(F)C[C@H]3C#N)ccnc12)C(=O)N[C@@H](CCCCN)C(=O)O [Compound 18] | 8.81 | 
 | C[C@@H](NC(=O)[C@H](CCCNC(=N)N)NC(=O)CCC(=O)Nc1cccc2c(C(=O)NCC(=O)N3CC(F)(F)C[C@H]3C#N)ccnc12)C(=O)N[C@@H](CCCCN)C(=O)O [Compound 19] | 9.00 | 
 | CN(C)C(=N)NCCC[C@H](NC(=O)CCC(=O)Nc1cccc2c(C(=O)NCC(=O)N3CC(F)(F)C[C@H]3C#N)ccnc12)C(=O)N[C@@H](Cc1ccccc1)C(=O)NCCNC(=O)OC(C)(C)C [Compound 26] | 10.13 | 
 | CN(C)C(=N)NCCC[C@H](NC(=O)CCC(=O)Nc1cccc2c(C(=O)NCC(=O)N3CC(F)(F)C[C@H]3C#N)ccnc12)C(=O)N[C@@H](Cc1ccccc1)C(=O)NCCN [Compound 27] | 8.99 | 
 | CN(C)C(=N)NCCC[C@H](NC(=O)CCC(=O)Nc1cccc2c(C(=O)NCC(=O)N3CC(F)(F)C[C@H]3C#N)ccnc12)C(=O)N[C@@H](Cc1ccccc1)C(=O)NCCNC(=S)Nc1ccc2c(c1)C(=O)OC21c2ccc(O)cc2Oc2cc(O)ccc21 [Compound 29] |  | staining of FAP-positive cells, flow cytometry [1]: stained; binding on wild-type (FAP-negative) cells, flow cytometry (FAP negative SKRC-52.wt): no binding; internalization, confocal microscopy (SK-RC-52.hFAP cells): Internalization was not observed; staining pattern, confocal microscopy (SK-RC-52.hFAP cells): Membrane-specific staining
 | C#CC[C@H](NC(=O)[C@H](CCCNC(=N)N(C)C)NC(=O)c1coc(CNC(=O)CCC(=O)N2CC(F)(F)C[C@H]2C#N)c1)C(=O)N[C@@H](CCCCNC(=S)Nc1ccc2c(c1)C(=O)OC21c2ccc(O)cc2Oc2cc(O)ccc21)C(=O)O [Compound 36] |  | staining of FAP-positive cells, flow cytometry [1]: stained; binding on wild-type (FAP-negative) cells, flow cytometry (FAP negative SKRC-52.wt): no binding; internalization, confocal microscopy (SK-RC-52.hFAP cells): Internalization was not observed; staining pattern, confocal microscopy (SK-RC-52.hFAP cells): Membrane-specific staining
 | N#C[C@@H]1CC(F)(F)CN1C(=O)CN [reference compound] | 4.62 | 

SMILES | pIC50 (murine FAP) | pIC50 (human FAP; [2]) | other results
C#CC[C@@H](NC(=O)[C@H](CCCNC(=N)N(C)C)NC(=O)c1coc(CNC(=O)CCC(=O)N2CC(F)(F)C[C@H]2C#N)c1)C(=O)N[C@@H](CCCCN)C(=O)O [Compound 3] | 7.42 | 7.22 | 
C#CC[C@H](NC(=O)[C@H](CCCNC(=N)N(C)C)NC(=O)CCC(=O)Nc1cccc2c(C(=O)NCC(=O)N3CC(F)(F)C[C@H]3C#N)ccnc12)C(=O)N[C@@H](CCCCN)C(=O)O [Compound 9] | 9.94 | 9.36 | FAP inhibition potency (in words) (human FAP): sub-nanomolar range; also recorded: increased strongly
